How the values were obtained:
Melanocortin receptor 4 = Melanocortin receptor 4 (Homo sapiens, UniProt P32245)
Cannabinoid receptor 1 = Cannabinoid receptor 1 (Homo sapiens, UniProt P21554); type: functional, cell-based
[1] = molecular target: Sodium-dependent dopamine transporter (Homo sapiens, UniProt Q01959)
Bile salt export pump = Bile salt export pump (Homo sapiens, UniProt O95342); type: functional
Adenosine receptor A2a = Adenosine receptor A2a (Homo sapiens, UniProt P29274)
Melanocortin receptor 3 = Melanocortin receptor 3 (Homo sapiens, UniProt P41968)
[2] = molecular target: T1, Cholecystokinin receptor type A (Homo sapiens, UniProt P32238)
T1 sequence (P32238 whole entry): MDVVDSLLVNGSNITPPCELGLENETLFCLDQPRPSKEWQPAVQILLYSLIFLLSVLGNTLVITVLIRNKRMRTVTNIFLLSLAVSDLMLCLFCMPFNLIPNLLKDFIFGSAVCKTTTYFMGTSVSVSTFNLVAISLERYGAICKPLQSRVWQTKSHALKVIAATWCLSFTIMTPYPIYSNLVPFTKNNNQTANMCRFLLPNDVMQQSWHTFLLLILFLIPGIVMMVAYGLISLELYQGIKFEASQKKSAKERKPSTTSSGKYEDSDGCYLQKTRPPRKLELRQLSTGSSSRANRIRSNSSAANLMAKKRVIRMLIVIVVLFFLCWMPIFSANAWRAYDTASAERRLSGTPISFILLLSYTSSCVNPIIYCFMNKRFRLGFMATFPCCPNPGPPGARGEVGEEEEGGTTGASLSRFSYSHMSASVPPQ

Adenosine receptor A1 = molecular target: T2, Adenosine receptor A1 (Homo sapiens, UniProt P30542)
T2 sequence (P30542 whole entry): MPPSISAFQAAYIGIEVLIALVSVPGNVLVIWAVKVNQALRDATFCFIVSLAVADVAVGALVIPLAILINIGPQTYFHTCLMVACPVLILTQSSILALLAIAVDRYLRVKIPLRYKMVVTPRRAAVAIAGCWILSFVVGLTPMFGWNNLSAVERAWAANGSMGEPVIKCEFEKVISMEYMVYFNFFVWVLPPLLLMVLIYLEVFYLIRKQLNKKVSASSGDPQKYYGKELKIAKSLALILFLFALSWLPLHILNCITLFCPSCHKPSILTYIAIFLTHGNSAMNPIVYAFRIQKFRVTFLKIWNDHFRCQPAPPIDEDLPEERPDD

Mu-type opioid receptor = Mu-type opioid receptor (Homo sapiens, UniProt P35372)
Sequence of Mu-type opioid receptor (P35372 whole entry): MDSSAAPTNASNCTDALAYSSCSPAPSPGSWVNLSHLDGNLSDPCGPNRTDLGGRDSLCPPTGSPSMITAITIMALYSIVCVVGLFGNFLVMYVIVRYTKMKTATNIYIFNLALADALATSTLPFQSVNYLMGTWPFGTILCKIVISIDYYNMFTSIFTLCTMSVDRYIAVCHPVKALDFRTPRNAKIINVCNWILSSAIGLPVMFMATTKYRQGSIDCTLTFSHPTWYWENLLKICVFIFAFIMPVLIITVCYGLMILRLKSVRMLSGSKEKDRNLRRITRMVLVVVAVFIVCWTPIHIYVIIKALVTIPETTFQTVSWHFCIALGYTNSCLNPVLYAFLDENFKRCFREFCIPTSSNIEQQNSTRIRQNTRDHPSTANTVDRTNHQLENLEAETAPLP

[3] = molecular target: 5-hydroxytryptamine receptor 2B (Homo sapiens, UniProt P41595); type: functional, cell-based
Sequence of 5-hydroxytryptamine receptor 2B (P41595 whole entry): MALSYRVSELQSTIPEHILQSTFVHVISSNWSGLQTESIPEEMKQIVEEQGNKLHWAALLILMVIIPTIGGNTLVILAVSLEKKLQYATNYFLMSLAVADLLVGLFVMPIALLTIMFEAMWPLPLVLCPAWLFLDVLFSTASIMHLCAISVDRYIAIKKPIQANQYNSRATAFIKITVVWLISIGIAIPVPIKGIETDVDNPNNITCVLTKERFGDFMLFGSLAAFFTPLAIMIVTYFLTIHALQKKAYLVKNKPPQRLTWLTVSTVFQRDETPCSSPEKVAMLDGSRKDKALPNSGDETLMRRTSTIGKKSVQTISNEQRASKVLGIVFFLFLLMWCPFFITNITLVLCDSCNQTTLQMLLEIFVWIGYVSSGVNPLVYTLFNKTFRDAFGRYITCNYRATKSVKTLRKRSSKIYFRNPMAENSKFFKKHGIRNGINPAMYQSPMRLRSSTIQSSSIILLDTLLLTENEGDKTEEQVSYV

[4] = molecular target: T3, Type-1 angiotensin II receptor (Homo sapiens, UniProt P30556)
T3 sequence (P30556 whole entry): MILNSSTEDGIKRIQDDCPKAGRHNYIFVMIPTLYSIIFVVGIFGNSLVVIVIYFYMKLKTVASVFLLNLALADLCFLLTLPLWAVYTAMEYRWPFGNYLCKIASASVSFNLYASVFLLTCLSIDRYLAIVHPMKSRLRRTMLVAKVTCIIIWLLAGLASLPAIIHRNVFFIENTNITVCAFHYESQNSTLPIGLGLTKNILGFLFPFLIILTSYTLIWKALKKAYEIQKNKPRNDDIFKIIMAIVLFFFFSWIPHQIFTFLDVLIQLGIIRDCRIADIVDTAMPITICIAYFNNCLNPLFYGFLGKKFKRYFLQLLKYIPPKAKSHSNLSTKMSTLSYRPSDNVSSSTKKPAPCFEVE

[5] = molecular target: Beta-1 adrenergic receptor (Homo sapiens, UniProt P08588); type: functional
Sequence of Beta-1 adrenergic receptor (P08588 whole entry): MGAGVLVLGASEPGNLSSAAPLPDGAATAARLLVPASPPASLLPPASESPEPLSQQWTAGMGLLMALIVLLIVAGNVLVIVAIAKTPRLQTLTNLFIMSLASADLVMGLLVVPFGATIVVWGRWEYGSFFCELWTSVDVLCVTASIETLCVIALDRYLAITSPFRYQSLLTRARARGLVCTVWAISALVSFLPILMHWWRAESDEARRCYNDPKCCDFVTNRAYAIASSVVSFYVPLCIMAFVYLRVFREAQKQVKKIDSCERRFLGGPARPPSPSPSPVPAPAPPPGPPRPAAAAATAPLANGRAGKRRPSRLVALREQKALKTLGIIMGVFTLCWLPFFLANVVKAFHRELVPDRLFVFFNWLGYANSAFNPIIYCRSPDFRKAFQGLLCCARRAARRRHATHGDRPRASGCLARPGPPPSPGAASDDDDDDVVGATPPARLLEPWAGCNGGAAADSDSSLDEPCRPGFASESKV

[6] = molecular target: Delta-type opioid receptor (Homo sapiens, UniProt P41143)
Sequence of Delta-type opioid receptor (P41143 whole entry): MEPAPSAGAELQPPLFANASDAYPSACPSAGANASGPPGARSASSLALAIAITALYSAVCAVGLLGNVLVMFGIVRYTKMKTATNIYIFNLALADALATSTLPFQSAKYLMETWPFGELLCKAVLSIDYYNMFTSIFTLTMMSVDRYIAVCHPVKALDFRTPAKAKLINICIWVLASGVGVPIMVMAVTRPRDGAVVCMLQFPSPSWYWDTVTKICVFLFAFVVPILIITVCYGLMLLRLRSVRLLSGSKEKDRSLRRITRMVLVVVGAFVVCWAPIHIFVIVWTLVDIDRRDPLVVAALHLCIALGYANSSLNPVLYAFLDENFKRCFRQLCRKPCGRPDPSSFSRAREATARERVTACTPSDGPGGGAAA

[7] = molecular target: T4, Alpha-1A adrenergic receptor (Homo sapiens, UniProt P35348); type: functional, cell-based
T4 sequence (P35348 whole entry): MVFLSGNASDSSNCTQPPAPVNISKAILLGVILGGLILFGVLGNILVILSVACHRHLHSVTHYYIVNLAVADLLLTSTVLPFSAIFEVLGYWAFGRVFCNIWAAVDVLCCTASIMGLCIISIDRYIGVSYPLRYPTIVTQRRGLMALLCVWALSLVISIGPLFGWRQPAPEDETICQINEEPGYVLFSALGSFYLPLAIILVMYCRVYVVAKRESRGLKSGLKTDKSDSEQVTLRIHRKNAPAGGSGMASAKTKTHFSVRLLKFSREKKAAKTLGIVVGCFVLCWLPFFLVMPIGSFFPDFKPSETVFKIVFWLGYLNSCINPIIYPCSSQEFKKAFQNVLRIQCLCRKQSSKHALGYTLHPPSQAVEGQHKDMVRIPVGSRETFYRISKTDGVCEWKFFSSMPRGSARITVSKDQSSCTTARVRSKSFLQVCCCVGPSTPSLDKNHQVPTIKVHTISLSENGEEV

[8] = molecular target: T5, Equilibrative nucleoside transporter 1 (Homo sapiens, UniProt Q99808)
T5 sequence (Q99808 whole entry): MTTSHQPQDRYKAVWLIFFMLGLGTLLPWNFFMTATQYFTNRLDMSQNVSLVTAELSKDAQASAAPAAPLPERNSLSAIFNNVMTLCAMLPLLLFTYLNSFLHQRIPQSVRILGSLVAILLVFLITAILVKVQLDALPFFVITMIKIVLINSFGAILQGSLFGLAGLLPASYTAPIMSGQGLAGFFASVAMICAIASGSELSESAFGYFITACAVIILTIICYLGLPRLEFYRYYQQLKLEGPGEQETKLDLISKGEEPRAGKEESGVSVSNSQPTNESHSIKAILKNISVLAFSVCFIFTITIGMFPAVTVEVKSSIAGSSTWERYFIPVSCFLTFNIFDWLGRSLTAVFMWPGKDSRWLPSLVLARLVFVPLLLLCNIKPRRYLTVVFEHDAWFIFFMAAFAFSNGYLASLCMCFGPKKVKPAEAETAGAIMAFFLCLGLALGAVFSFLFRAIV

[9] = molecular target: 5-hydroxytryptamine receptor 2A (Homo sapiens, UniProt P28223); type: functional, cell-based
Also: assay procedure not described here.

Sequence of Sodium-dependent dopamine transporter (Q01959 whole entry): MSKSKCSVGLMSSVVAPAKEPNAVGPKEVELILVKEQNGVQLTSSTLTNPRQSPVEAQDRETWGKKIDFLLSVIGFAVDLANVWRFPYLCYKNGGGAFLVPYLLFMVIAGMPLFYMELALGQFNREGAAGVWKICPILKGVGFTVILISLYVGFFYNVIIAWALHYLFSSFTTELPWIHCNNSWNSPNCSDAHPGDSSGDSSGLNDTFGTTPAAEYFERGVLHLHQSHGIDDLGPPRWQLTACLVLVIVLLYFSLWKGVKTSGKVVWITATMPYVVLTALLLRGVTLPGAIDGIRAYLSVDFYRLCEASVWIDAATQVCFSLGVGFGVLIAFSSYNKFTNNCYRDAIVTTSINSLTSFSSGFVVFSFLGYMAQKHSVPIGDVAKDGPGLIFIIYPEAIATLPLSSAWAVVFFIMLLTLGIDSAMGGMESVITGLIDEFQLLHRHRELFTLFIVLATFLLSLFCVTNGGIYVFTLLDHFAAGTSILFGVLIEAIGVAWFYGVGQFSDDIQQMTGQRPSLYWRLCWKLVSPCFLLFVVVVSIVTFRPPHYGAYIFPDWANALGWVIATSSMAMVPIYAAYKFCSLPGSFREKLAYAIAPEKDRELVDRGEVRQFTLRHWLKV
Sequence of Cannabinoid receptor 1 (P21554 whole entry): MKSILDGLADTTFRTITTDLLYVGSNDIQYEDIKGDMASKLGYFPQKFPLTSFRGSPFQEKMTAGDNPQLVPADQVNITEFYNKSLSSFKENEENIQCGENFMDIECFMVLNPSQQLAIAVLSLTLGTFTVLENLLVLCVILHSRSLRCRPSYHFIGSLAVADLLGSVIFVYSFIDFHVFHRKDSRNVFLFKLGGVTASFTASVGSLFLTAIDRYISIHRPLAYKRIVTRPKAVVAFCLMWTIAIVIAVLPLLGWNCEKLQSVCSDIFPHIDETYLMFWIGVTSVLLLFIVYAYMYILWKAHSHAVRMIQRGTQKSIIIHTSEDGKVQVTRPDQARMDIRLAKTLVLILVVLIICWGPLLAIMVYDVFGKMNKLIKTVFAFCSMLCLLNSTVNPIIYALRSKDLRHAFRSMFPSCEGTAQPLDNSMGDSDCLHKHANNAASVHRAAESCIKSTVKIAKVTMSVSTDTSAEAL
Sequence of Melanocortin receptor 4 (P32245 whole entry): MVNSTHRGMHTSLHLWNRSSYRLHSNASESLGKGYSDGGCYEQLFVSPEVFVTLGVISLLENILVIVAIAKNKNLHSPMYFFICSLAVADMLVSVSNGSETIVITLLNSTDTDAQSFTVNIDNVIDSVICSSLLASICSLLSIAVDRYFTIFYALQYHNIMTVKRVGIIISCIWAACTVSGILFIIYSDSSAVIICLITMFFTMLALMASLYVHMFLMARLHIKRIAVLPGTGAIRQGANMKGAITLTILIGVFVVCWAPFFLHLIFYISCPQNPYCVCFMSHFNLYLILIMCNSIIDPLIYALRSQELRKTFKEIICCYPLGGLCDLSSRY
Sequence of Adenosine receptor A2a (P29274 whole entry): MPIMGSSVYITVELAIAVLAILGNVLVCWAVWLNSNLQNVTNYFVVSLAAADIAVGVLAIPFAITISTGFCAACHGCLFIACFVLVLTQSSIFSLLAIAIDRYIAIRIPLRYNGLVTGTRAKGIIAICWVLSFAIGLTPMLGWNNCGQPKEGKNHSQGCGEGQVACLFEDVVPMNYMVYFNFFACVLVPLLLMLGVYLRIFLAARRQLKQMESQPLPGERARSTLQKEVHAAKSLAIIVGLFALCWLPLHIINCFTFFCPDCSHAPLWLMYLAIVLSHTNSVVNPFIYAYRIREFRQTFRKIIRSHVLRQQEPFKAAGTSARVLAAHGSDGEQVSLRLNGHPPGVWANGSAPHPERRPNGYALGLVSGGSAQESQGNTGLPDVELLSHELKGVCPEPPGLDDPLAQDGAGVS
Sequence of Bile salt export pump (O95342 whole entry): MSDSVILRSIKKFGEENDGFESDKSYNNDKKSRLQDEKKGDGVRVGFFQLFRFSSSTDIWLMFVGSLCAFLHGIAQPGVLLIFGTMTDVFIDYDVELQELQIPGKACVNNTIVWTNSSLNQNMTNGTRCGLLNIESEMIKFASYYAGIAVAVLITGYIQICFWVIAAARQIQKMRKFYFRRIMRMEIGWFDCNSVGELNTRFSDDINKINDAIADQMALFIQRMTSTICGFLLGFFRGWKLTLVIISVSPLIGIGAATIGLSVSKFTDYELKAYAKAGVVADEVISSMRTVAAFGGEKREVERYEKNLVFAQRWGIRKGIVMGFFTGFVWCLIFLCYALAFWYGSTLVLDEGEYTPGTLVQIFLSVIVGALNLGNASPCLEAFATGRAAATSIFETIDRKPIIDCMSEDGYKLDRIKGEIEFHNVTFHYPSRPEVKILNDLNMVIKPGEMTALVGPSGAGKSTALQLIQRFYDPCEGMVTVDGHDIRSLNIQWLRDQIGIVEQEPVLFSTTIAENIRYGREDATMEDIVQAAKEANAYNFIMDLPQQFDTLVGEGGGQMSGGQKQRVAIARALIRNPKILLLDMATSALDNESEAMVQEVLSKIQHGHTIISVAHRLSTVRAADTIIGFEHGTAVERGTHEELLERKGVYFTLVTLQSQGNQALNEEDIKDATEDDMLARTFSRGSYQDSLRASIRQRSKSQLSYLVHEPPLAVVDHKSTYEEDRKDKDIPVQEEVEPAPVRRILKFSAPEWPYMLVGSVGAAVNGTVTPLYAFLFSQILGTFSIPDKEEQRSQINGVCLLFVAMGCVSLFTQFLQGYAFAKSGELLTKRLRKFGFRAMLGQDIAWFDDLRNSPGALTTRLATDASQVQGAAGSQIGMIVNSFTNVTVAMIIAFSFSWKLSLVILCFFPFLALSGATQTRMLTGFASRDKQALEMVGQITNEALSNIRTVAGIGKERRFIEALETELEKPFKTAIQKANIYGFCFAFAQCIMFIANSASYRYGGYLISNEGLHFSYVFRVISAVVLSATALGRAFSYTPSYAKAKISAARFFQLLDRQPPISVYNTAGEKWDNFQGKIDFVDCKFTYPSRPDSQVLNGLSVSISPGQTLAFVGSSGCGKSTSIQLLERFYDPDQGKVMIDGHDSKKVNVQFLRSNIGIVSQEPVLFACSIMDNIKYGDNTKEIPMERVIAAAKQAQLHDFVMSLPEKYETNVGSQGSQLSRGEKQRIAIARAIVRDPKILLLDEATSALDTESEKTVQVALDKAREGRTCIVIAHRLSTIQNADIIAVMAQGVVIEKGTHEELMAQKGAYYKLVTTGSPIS

| SMILES | AC50 (Melanocortin receptor 4) [µM] | AC50 (Cannabinoid receptor 1) [µM] | AC50 [1] [µM] | AC50 (Bile salt export pump) [µM] | AC50 (Adenosine receptor A2a) [µM] | AC50 (Melanocortin receptor 3) [µM] | AC50 [2] [µM] | AC50 (Adenosine receptor A1) [µM] | AC50 (Mu-type opioid receptor) [µM] | AC50 [3] [µM] | AC50 [4] [µM] | AC50 [5] [µM] | AC50 [6] [µM] | AC50 [7] [µM] | AC50 [8] [µM] | AC50 [9] [µM] |
| --- | --- | --- | --- | --- | --- | --- | --- | --- | --- | --- | --- | --- | --- | --- | --- | --- |
| Nc1nc(N)c2nc(-c3ccccc3)c(N)nc2n1 | > 10 | > 30 | > 30 | > 300 | > 30 | > 30 | > 30 | > 30 | 29.1 | > 30 | > 30 | > 30 | > 30 | > 30 | > 30 | – |
| C#C[C@]1(O)CC[C@H]2[C@@H]3CCc4cc(O)ccc4[C@H]3CC[C@@]21C [ETHINYL ESTRADIOL] | > 30 | – | 0.8 | 38 | > 30 | > 30 | > 30 | > 30 | 20.6 | > 10 | > 30 | > 10 | > 30 | > 10 | > 30 | – |
| CN(CCOc1ccc(NS(C)(=O)=O)cc1)CCc1ccc(NS(C)(=O)=O)cc1 [DOFETILIDE] | > 30 | > 30 | > 30 | > 300 | > 30 | > 30 | > 30 | > 30 | > 30 | > 30 | 9.5 | > 10 | > 30 | > 30 | > 30 | > 30 |
| CC(C(=O)O)c1ccc(N2CC=CC2)c(Cl)c1 (stereo not given) [PIRPROFEN] | > 30 | > 30 | > 30 | 270 | > 30 | > 30 | > 30 | > 30 | > 30 | > 10 | > 30 | > 10 | > 30 | > 30 | > 30 | > 30 |
| C[C@H]1O[C@H](O[C@H]2[C@H](O)[C@@H](O)[C@@H](O[C@H]3[C@H](O)[C@@H](O)C(O)O[C@@H]3CO)O[C@@H]2CO)[C@H](O)[C@@H](O)[C@@H]1N[C@H]1C=C(CO)[C@@H](O)[C@H](O)[C@H]1O (stereo not given in full) [ACARBOSE] | > 30 | 30 | > 30 | > 300 | > 30 | > 30 | > 30 | > 30 | > 30 | > 30 | > 30 | > 30 | > 10 | > 30 | > 30 | – |
| CCc1ccc(CCOc2ccc(CC3SC(=O)NC3=O)cc2)nc1 (stereo not given) [PIOGLITAZONE] | > 30 | – | > 30 | 0.1 | > 30 | > 30 | > 30 | > 30 | > 30 | > 10 | > 30 | > 10 | > 10 | > 10 | > 30 | – |
| Oc1ncnc2[nH]ncc12 [ALLOPURINOL] | > 30 | > 30 | > 30 | > 300 | > 30 | > 30 | > 30 | > 30 | > 30 | > 10 | > 30 | > 10 | > 30 | > 30 | > 30 | – |
| NC(=O)c1cnccn1 [PYRAZINAMIDE] | 10.2 | > 30 | > 30 | > 300 | > 30 | 12.6 | > 30 | > 30 | > 30 | > 30 | > 30 | > 30 | > 30 | > 30 | > 30 | – |

Source: ChEMBL document CHEMBL5291721, “A preclinical secondary pharmacology resource illuminates target-adverse drug reaction associations of marketed drugs” (Nat Commun, 2023)
